Data taken from US20230312587A1, “PTERIDINONE COMPOUNDS AND USES THEREOF” (Vertex Pharmaceutical Incorporated, priority 2018, published 2023).

Tests used:
[1] = system: HepG2 cells with CRISPR/Cas9 mediated WFS1 knockout (KO); assay: Calcium flux in parental HepG2 vs HepG2 WFS1 knockout cells; format: cell-based; conditions: 30 minutes after compound addition
Description: A double cleavage strategy was employed to remove large fragments from the WFS1 locus. Suitable target sites in WFS1 exon 8 were first selected using CRISPR design software to rank suitable target sites and computationally predict off-target sites for each intended target. Six top guide RNA sequences are identified and screened for activity using the Surveyor Mutation Detection Kit (Integrated DNA Technologies). Then, the best 2 guide RNAs were cloned into GeneArt OFP CRISPR nuclease vectors (Thermofisher, Cat #A21174) separately and co-transfected into HepG2 cells using nucleofection (4D Nucleofector X, Lonza). Cells were sorted by FACS 48 hrs later to enrich for the OFP positive cell population. The OFP positive cell population were plated into 96-well plates at 0.5-5 cells/well to isolate clonal cell lines. After allowing cells to expand for 2-3 weeks, plates were inspected for presence of colonies. When colonies became more than 70% confluent, they were dissociated with trypsin and were further expanded. Cell clones with homozygous double cleavage of WFS1 exon 8 were detected with PCR and confirmed with DNA sequencing.

[2] = system: Hek293 cells over-expressing WFS1; assay: Calcium flux in Hek293 cells over-expressing WFS1 vs empty vector; format: cell-based; conditions: induction of calcium flux
Description: To determine the effect of WFS1 over-expression on compound mediated effects on calcium flux and cell viability, Hek293 cells were transduced with either an empty retroviral vector or a retroviral vector expressing full length WFS1 cDNA. Hek293 cells transduced with the WFS1 encoding retrovirus expressed greater than 100 times the amount of WFS1 protein than empty vector Hek293 cells (FIG. 3).

WFS1 = WFS1 (Homo sapiens (Human), UniProt O76024); assay: Binding of radiolabeled Compound 136 to cellular membrane extracts
Procedure: Cell pellets were re-suspended in 15 times packed cellular volume in 4° C. hypotonic lysis buffer (10 mM HEPES, pH 7.5 containing 1×Protease inhibitor, 0.5 mM EDTA and 2 mM DTT). Re-suspended cells were homogenized with 6-8 strokes in a dounce homogenizer kept on ice. Lysates were centrifuged at 500×G for 15 minutes at 4° C. without brake to decelerate rotor. Following centrifugation, remove the supernatant to a fresh tube and place on ice (Supernatant 1). Repeat the above steps on the lysed cell pellet using 0.5 the original volume of hypotonic lysis buffer and remove the 500× G supernatant (Supernatant 2) and combine with Supernatant 1. Transfer the combined supernatants to a 45-Ti ultracentrifuge tube and centrifuge at 100,000× G for 30 minutes. Following ultracentrifugation, carefully remove the supernatant and discard. Resuspend the 100,000× G pellet in cold resuspension buffer (10 mM HEPES, pH 7.5, 300 mM NaCl containing 1× Protease inhibitor, 1× EDTA and 2 mM DTT). […]
The binding affinities of compounds were determined by measuring the competitive displacement of a tritiated Compound 136 probe from purified HEK293 membranes over-expressing WFS-1. […]
The binding affinity of radiolabeled Compound 136 to cell membranes derived from cells expressing different levels of WFS1 as determined by immunoblotting is shown in FIG. 8. […]

WFS1, sequence (O76024 whole entry): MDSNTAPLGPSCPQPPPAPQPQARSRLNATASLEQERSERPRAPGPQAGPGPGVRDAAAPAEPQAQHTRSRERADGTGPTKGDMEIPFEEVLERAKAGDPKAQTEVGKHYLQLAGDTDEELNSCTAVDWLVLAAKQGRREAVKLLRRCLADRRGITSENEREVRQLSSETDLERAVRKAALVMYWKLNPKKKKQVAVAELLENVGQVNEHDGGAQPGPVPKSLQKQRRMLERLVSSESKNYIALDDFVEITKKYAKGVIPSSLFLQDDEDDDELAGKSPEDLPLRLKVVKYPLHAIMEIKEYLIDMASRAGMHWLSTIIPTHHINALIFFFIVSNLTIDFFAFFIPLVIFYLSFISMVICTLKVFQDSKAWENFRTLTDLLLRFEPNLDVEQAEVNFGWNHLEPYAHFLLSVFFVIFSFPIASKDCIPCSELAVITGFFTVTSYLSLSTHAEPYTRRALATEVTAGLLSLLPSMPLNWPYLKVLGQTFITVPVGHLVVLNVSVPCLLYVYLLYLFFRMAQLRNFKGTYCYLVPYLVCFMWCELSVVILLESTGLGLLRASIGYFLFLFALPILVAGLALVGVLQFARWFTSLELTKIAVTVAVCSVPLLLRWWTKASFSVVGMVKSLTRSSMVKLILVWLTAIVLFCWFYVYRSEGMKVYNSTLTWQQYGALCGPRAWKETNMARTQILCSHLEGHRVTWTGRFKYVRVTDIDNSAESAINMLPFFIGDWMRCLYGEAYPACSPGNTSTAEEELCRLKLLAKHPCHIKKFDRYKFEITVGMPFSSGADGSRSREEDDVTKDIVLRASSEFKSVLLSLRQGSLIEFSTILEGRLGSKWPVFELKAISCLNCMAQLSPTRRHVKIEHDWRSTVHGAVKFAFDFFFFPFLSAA

| Compound | melting point | effect of WFS1 depletion on ability to induce calcium flux [1] | reduction in the EC50 on over-expression of WFS1 [2] | binding to cellular membrane extracts which over-express WFS1 (WFS1; radiolabeled (tritiated) Compound 136) | Bmax vs level of WFS1 protein in cellular membrane (WFS1; radiolabeled Compound 136, cells expressing different levels of WFS1) |
| --- | --- | --- | --- | --- | --- |
| COc1c(F)cc(Cn2cc(CNc3nc(C)c4c(n3)N(C)[C@@H](C)C(=O)N4)cn2)cc1F [Compound 46, (7S)-2-(((1-(3,5-difluoro-4-methoxybenzyl)-1H-pyrazol-4-yl)methyl)amino)-4,7,8-trimethyl-7,8-dihydropteridin-6(5H)-one] | 136 to 138 °C |  |  |  |  |
| Cc1nc(NCc2cnn(Cc3ccc(C(F)(F)F)nc3)c2)nc2c1NC(=O)[C@H](C)N2C [Compound 136, (7S)-4,7,8-trimethyl-2-(((1-((6-(trifluoromethyl)pyridin-3-yl)methyl)-111-pyrazol-4-yl)methyl)amino)-7,8-dihydropteridin-6(5H)-one] |  | completely eliminated | approximately 10 fold | specifically bind | correlates with the level of WFS1 protein |
